# Assay results published in US9486434B2, “Method for delivery and use of isothiocyanates for prophylaxis and/or therapy of bladder cancer” (Health Research Inc., priority 2010, dated 2016).
# Columns and labels:
# Type in all cases: cell-based, human
# Conditions in all cases: 24 h
# UM-UC-3 cells [1] = experiment: Cell cycle arrest by flow cytometry, UM-UC-3 cells
# Protocol: (§1) FIG. 3. The effect of AITC on cell survival and proliferation. AITC was evaluated at the indicated concentrations in human bladder cancer UM-UC-3 cells, rat bladder cancer AY-27 cells, and normal human bladder epithelial cells (HUC). A. Cell growth inhibition, measured by MTT assay, 72-h AITC treatment. IC50 was calculated from nonlinear regression curve fit. B. Cell cycle arrest (□, subG1; ? , G1; ? , 5; ▪, G2/M), measured by flow cytometry, 24 h AITC treatment. C. Apoptosis induction, measured by an ELISA assay, 24 h AITC treatment. Mean±SE, n=3-6), *P<0.05.
# FIG. 4. Effect of AITC on mitosis, tubulin expression and apoptosis in human bladder cancer UM-UC-3 cells. Cells were treated with vehicle or AITC for 24 h (each numerical value is mean±SD). A. Flow cytometry analysis for cell cycle arrest. B. Wright-Giemsa staining for counting mitotic figures. Arrows point to cells in mitosis or mitotic catastrophe. C. Immunofluorescent staining of microtubules (green color) and DNA staining with DAPI (blue color). D. Western blotting of tubulins (GAPDH as a loading control). E. Loss of mitochondrial transmembrane potential (Δψm) measured by flow cytometry. […] G. Apoptotic cells (TUNEL cells) measured by flow cytometry. […]
# FIG. 10. […] NAC-AITC was evaluated in both UM-UC-3 cells and AY-27 cells. […] (B) Cell growth and proliferation, measured by 3-([…])-2,5-diphenyltetrazolium bromide assay, 72 h treatment with AITC or NAC-AITC at indicated concentrations. IC50 was calculated from the non-linear regression curve fit. (C) Apoptosis, measured by an enzyme-linked immunosorbent assay, 24 h NAC-AITC treatment at 15 µM. (D) Cell cycle (open bars, G1; shaded bars, S; closed bars, G2/M), measured by flow cytometry, 24 h NAC-AITC treatment at 15 μM. *P<, 0.005, compared with control.
# The effect of NAC-AITC on cell cycle progression was measured by flow cytometry as described previously. […] Induction of apoptosis by NAC-AITC was measured using the Cell Death Detection ELISA^plus kit (Roche Diagnostics, Indianapolis, Ind.), following the manufacturer's instruction. […]
# UM-UC-3 cells [2] = experiment: Apoptosis induction ELISA (histone-associated DNA), UM-UC-3 cells
# Protocol: as §1
# FIG. 10. The effect of NAC-AITC on cell survival and proliferation. NAC-AITC was evaluated in both UM-UC-3 cells and AY-27 cells. (A) Chemical structures of AITC and NAC-AITC. (B) Cell growth and proliferation, measured by 3-([…])-2,5-diphenyltetrazolium bromide assay, 72 h treatment with AITC or NAC-AITC at indicated concentrations. IC50 was calculated from the non-linear regression curve fit. (C) Apoptosis, measured by an enzyme-linked immunosorbent assay, 24 h NAC-AITC treatment at 15 µM. (D) Cell cycle (open bars, G1; shaded bars, S; closed bars, G2/M), measured by flow cytometry, 24 h NAC-AITC treatment at 15 μM. *P<, 0.005, compared with control.
# The effect of NAC-AITC on cell cycle progression was measured by flow cytometry as described previously. […]
# [3] = tested on: α-tubulin, β-tubulin, γ-tubulin, caspase-9, caspase-3, VEGF in UM-UC-3 cells; experiment: Western blotting in UM-UC-3 cells (tubulins, caspases, VEGF)
# Protocol: FIG. 4. Effect of AITC on mitosis, tubulin expression and apoptosis in human bladder cancer UM-UC-3 cells. Cells were treated with vehicle or AITC for 24 h (each numerical value is mean±SD). A. Flow cytometry analysis for cell cycle arrest. B. Wright-Giemsa staining for counting mitotic figures. Arrows point to cells in mitosis or mitotic catastrophe. C. Immunofluorescent staining of microtubules (green color) and DNA staining with DAPI (blue color). D. Western blotting of tubulins (GAPDH as a loading control). E. Loss of mitochondrial transmembrane potential (Δψm) measured by flow cytometry. F. Western blotting of caspase-9 and caspase-3 (GAPDH as a loading control). G. Apoptotic cells (TUNEL cells) measured by flow cytometry. Cells in F and G were co-treated with or without 20 microM Z-LEHD-FMK (a caspase-9 inhibitor).
# FIG. 8. Inhibition of bladder cancer development by MSP-1. Female F344 rats were inoculated with AY-27 cells intravesically via a urethra catheter to initiate development of orthotopic bladder cancer. Oral administration of MSP-1 of vehicle (water) once daily was started 1 day after cancer cell inoculation and ended 3 weeks later. The number of rats per group varied from 11-29. A. Initial (□) and final (▪) body weights. B. Tumor weight was calculated by subtracting the average normal bladder weight from tumor-bearing bladder weight. *P<0.05. Each value in A and B is mean±SEM. C. Percentage of bladder where the tumor invaded the muscle tissue. D. The effects of MSP-1 on selected anticancer targets in UM-UC-3 cells (in vitro), AY-27 cells (in vitro) and AY-27 tumors (in vivo). The cells were treated with MSP-1 at the sinigrin concentrations of 13 and 26 microM for 24 h. The bladder tumors were removed from rats treated with MSP-1 at the sinigrin doses of 9 or 90 micromols/kg once daily for 3 weeks, started 1 day after cancer cell inoculation. Cell lysates and tumor homogenates were analyzed by Western blotting, using GAPDH as a loading control.
# Western blot analysis. […]
Structure (SMILES),"cells in G2/M phase (UM-UC-3 cells [1]; NAC-AITC 15 µM, control 11-12%) [%]",increase in apoptotic activity (UM-UC-3 cells [2]; 15 μM) [fold],"cells in G2/M phase (UM-UC-3 cells [1]; AITC 7.5-15 microM, control 9.9-11.5%)",increase in subG1 population (UM-UC-3 cells [1]; AITC),increase in cytoplasmic levels of histone-associated DNA (UM-UC-3 cells [2]; AITC),caspase-9 and caspase-3 activation [3],α-tubulin and β-tubulin levels [3]
"C=CCNC(=S)SC[C@H](NC(C)=O)C(=O)O [NAC-AITC, N-acetyl-S—(N-allylthiocarbamoyl)cysteine]",55,8.8,,,,,
"C=CCN=C=S [AITC, allyl isothiocyanate]",,,up to 72%,up to 6.5 fold,up to 3.9 fold,activation of both caspase-9 and caspase-3,significantly down regulated
